Several values for one entry are separate records, joined by “and”; a condition that tells them apart may be missing. Equal values may be shown once.
Legend:
[1] = parameters: method as in Alvarez et al., 2008; conditions: ref Alvarez et al., 2008, cited from earlier work
[2] = system: TCBZ-resistant F. hepatica (Sligo isolate); assay: Clinical efficacy study: fluke counts 15 days after treatment; type: in vivo, Fasciola hepatica
Protocol: (§1) Animals were each orally infected with eighty (80) metacercariae of a TCBZ-resistant F. hepatica isolate, named Sligo. For details of the history of the Sligo isolate, see previous works. Sixteen weeks after infection, animals were randomly distributed into three experimental groups (n = 4 each): Group I, which represented the untreated control group; Group II, in which animals were treated with TCBZ (Fasinex®, Novartis) by the i.r. route at 10 mg/kg dose rate; and Group III, in which animals were simultaneously treated with TCBZ (Fasinex®, Novartis) by the i.r. route (10 mg/kg) and IVM (Ivosint®, Biogénesis) by the s.c. route (0.2 mg/kg, internal face of the thigh). Additionally, animals in Group III were treated by the intramuscular (i.m.) route (Semitendinosus muscle) with MTZ (2.5% aqueous solution) at a dose rate of 1.5 mg/kg. MTZ administration was performed 30 min after TCBZ/IVM treatment. Blood samples (5 ml) were taken by jugular venipunctures into heparinised Vacutainers® tubes (Becton Dickinson, USA) before administration (time 0) and at 1, 3, 6, 9, 12, 18, 24, 30, 36, 48, 72, 96, 120 and 144 h post-treatment. Plasma was separated by centrifugation at 3000 g for 15 min, placed into plastic tubes and frozen at -20°C until analyzed by high performance liquid chromatography (HPLC).
Fifteen days after treatment all animals were stunned and exsanguinated immediately. Adult F. hepatica specimens were recovered from the common bile ducts and the gall bladder of each sheep and counted according to the World Association for the Advancement of Veterinary Parasitology (W.A.A.V.P) guidelines. The efficacy of each anthelmintic treatment was determined by the comparison of F. hepatica burdens in treated versus untreated animals. The following equation expresses the percent efficacy (% E) of a drug treatment against F. hepatica (F.h.) in a single treatment group (T) when compared with an untreated control (C). [drawing 1]
The geometric mean was used as it most accurately represents the distribution of parasite populations within each group.

[3] = Plasma disposition kinetics of TCBZ metabolites in F. hepatica-infected sheep (HPLC, non-compartmental analysis); type: in vivo; conditions: for AUC0-∞ / AUC0-t / Cmax / MRT (mean residence time) / T1/2el (elimination half-life) / T1/2for (formation half life) / Tmax: in vivo, 10 mg/kg; for Time metabolites were recovered in plasma post-treatment: sheep plasma, both treated groups, last sampling time 144 h; for AUC0-t / Cmax / MRT (mean residence time) / T1/2el (elimination half-life) / T1/2for (formation half life) / Tmax: sheep
Protocol: as §1
TCBZ and its metabolites were extracted from plasma as previously described. Samples (1 ml) were spiked with 10 μl of oxibendazole (OBZ) (100 μg/ml), used as internal standard. After addition of 2 ml of acetonitrile, samples were shaken for 20 min (multivortex) and then centrifuged at 2500 g for 15 min. The supernatants were recovered and evaporated to dryness in a vacuum concentrator (Speed-Vac®, Savant, Los Angeles, USA). The dry extracts were reconstituted in 300 μl of mobile phase and an aliquot of 50 μl was injected into the HPLC system.
Experimental and fortified plasma samples were analysed by HPLC to determine the concentration of TCBZ and its metabolites following the methodology previously described. The elution from the stationary phase (Selectosil C18 column, 5 μm, 250 × 4.6 mm, Phenomenex®, CA, USA) was carried out at a flow rate of 1.2 ml/min, using a mixture of acetonitrile/ammonium acetate (0.025 M, pH 6.6) as mobile phase. Fifty μl of each previously extracted sample were injected into a Shimadzu 10 A HPLC System (Kyoto, Japan), using a gradient pump, UV detector set at 300 nm, an autosampler and a controller (Shimadzu Class LC10, Kyoto, Japan). Analytes were identified by the retention times of pure reference standards. Chromatographic retention times were: 4.09 (OBZ), 5.91 (TCBZ.SO), 7.95 (TCBZ.SO2) and 10.36 (TCBZ) min. […] The absolute recovery of drug analytes from plasma was calculated by comparison of the peak areas from spiked plasma samples with the peak areas resulting from direct injections of standards in mobile phase. Mean absolute recoveries and coefficient of variations (CV) within the concentration range between 0.1 and 25 μg/ml (triplicate determinations) were 89.2% (CV: 6.74%) (TCBZ), 87.1% (CV: 6.03%) (TCBZ.SO) and 90.1% (CV: 4.75%) (TCBZ.SO2). Precision (intra- and inter-assay) was determined by analysing replicates of fortified plasma samples (n = 5) with each compound at three different concentrations (0.1, 5 and 10 μg/ml). CV ranged from 2.54 to 14.6%. The limit of quantification (LOQ) was defined as the lowest measured concentration with a CV <20% and accuracy of ±20% and an absolute recovery ≥70%. The LOQ defined for the three molecules assayed was 0.1 μg/ml. Values below LOQ were not included in the pharmacokinetic analysis.
The concentration versus time curves for TCBZ metabolites in plasma for individual animals were fitted with the PKSolutions™ computer program/programme (Summit Research Service, Ashland, USA). Pharmacokinetic analysis of the experimental data was performed by non-compartmental analysis. […]

SMILES: CC[C@H](C)[C@H]1O[C@]2(CC[C@@H]1C)C[C@@H]1C[C@@H](C/C=C(\C)[C@@H](O[C@H]3C[C@H](OC)[C@@H](O[C@H]4C[C@H](OC)[C@@H](O)[C@H](C)O4)[C@H](C)O3)[C@@H](C)/C=C/C=C3\CO[C@@H]4[C@H](O)C(C)=C[C@@H](C(=O)O1)[C@]34O)O2 [IVM, ivermectin]
- Initial plasma concentration ([1]; after i.v. administration): 281.2 ± 32.6 ng/mL
- Peak plasma concentration ([1]; after s.c. administration at the same dose rate): 21.3 ± 13.3 ng/mL

SMILES: CSc1nc2cc(Cl)c(Oc3cccc(Cl)c3Cl)cc2[nH]1 [TCBZ alone, 6-chloro-5(2-3 dichlorophenoxy)-2-methyl thio-benzimidazole]
- Individual fluke counts ([2]; sheep infected with 80 metacercariae, treated 16 weeks after infection, counted 15 days post-treatment, one value per animal (n = 4)): 2 and 12 and 8 and 5
- Arithmetic mean fluke count ([2]; sheep, 15 days post-treatment, n = 4, untreated control 13.25): 6.75
- Clinical efficacy ([2]; sheep, 15 days post-treatment, versus untreated control, calculated using geometric means): 56%

SMILES: CS(=O)(=O)c1nc2cc(Oc3cccc(Cl)c3Cl)c(Cl)cc2[nH]1 [TCBZ.SO2, triclabendazole sulphone]
- AUC0-∞ [3]: 917.9 ± 270.6 µg·h/mL
- Time metabolites were recovered in plasma post-treatment [3]: up to 144 h
- AUC0-t [3]: 868.2 ± 217.6 µg·h/mL
- Cmax [3]: 13500 ± 1680 ng/mL
- MRT (mean residence time) [3]: 61.3 ± 17.2 h
- T1/2el (elimination half-life) [3]: 26.8 ± 10.9 h
- T1/2for (formation half life) [3]: 12.3 ± 2.90 h
- Tmax [3]: 39.0 ± 6.00 h

SMILES: C[S+]([O-])c1nc2cc(Oc3cccc(Cl)c3Cl)c(Cl)cc2[nH]1 (stereo not shown) [TCBZ.SO, triclabendazole sulphoxide]
- Share of the total analytes found in sheep plasma ([3]; after i.r. administration of TCBZ): 42%
- AUC0-∞ [3]: 661.5 ± 148.5 µg·h/mL
- Time metabolites were recovered in plasma post-treatment [3]: up to 144 h
- AUC0-t [3]: 653.9 ± 140.6 µg·h/mL
- Cmax [3]: 14000 ± 850 ng/mL
- MRT (mean residence time) [3]: 38.8 ± 10.5 h
- T1/2el (elimination half-life) [3]: 17.5 ± 8.45 h
- T1/2for (formation half life) [3]: 6.85 ± 2.18 h
- Tmax [3]: 22.5 ± 7.55 h
